From patent US20240246981A1, “[…] DERIVATIVES AS INHIBITORS OF […]-PEPTIDE CYCLOTRANSFERASE AND […]-PEPTIDE CYCLOTRANSFERASE LIKE PROTEIN” (Boehringer Ingelheim International GmbH, priority 2022, published 2024)

What was measured:
[1] = system: SIRPα signalling induced by A549 cells; test: Assay B: SIRPα signalling assay using A549 cells; assay type: cell-based, human; conditions: Homo sapiens, compounds of the invention, Table 4, read-out: Inhibition of SIRα signalling induced by A549 cells: IC50
Method: Two cell types are independently used: the Raji cell line (lymphoblastlike human cell line derived from B lymphocytes from a Burkitt's lymphoma patient in 1963) and A549 cells (adenocarcinomic human alveolar basal epithelial cells).
Test compounds were dissolved in 100% DMSO and serially diluted into a white 384-well microtiter cell culture plate (PerkinElmer #60076780 in case of Raji assay; PDL-coated plates Greiner #781945 in case of A549 assay). 5000 Raji cells (ATCC #CC86) or 5000 A549 cells (ATCC #CCL-185) in Assay Complete Cell Plating reagent 30 (DiscoverX 93-0563R30B) were added per well. The assay plate was incubated for 48 h at 37° C., 95% humidity and 5% CO2. 15000 reporter cells (Jurkat PathHunter SIRPα V1, DiscoverX #93-1135C19) were added to each well, and the plate was incubated for 5 h at 37° C., 95% humidity and 5% CO2. Bioassay reagent 1 of the PathHunter Bioassay detection kit (DiscoverX 93-0001) was added to each well of the plate using a multichannel pipette followed by a 15 min incubation at room temperature. Afterwards bioassay reagent 2 was added followed by 60 min incubation at room temperature (incubation in the dark).
The analysis of the data was performed using the luminescence signal generated by beta-galactosidase in the PathHunter reporter cell line. The luminescence measurement was done using a Pherastar Multi-Mode Reader. Dose-response curves & IC50 data were calculated with 4-parameter sigmoidal dose response formula.

[2] = Assay C: permeability in CACO-2 cells; assay type: in vitro ADME; conditions: human, pH 7.2, compounds of the invention, Table 7; for Papp A→B: Caco-2, apical to basolateral; for efflux ratio: Caco-2
Method: Compounds are dissolved in appropriate solvent (like DMSO, 1-20 mM stock solutions). […] The transport solution (TL) is applied to the apical or basolateral donor side for measuring A-B or B-A permeability (3 filter replicates), respectively. Samples are collected at the start and end of experiment from the donor and at various time intervals for up to 2 hours also from the receiver side for concentration measurement by HPLC-MS/MS or scintillation counting. Sampled receiver volumes are replaced with fresh receiver solution.

QPCT = QPCT (Homo sapiens (Human), UniProt Q16769); test: Assay A: biochemical QPCT activity assay (MALDI-TOF MS); conditions: compounds of the invention, Table 2; read-out: Inhibition of QPCT: IC50
Method: (§1) QPCT or QPCTL dependent conversion of N-terminal glutamine to pyroglutamate of CD47 was monitored via MALDI-TOF MS. Test compounds were dissolved in 100% DMSO and serially diluted into clear 1,536-well microtiter plates. Enzymatic reactions were set up in assay buffer containing 20 mM Tris pH 7.5, 0.1 mM TCEP, 0.01% BSA, and 0.001% Tween20. […] The plates were incubated for 10 min in a humidified incubator at 24° C. Subsequently, 2.5 μL of CD47 peptide substrate surrogate (^19[…]^33) was added to each well (final concentration: 10 μM for QPCTL/20 μM for QPCT). The plates were mixed for 30 sec at 1,000 rpm and subsequently incubated for 40 min in a humidified incubator at 24° C. […] The plates were sealed with an adhesive foil, mixed for 30 s at 1,000 rpm and stored at room temperature until preparation of the MALDI target plates. […] QPCT or QPCTL activity was monitored by calculating the ratio between product and internal standard signals followed by normalization to high (100% activity) and low (0% activity) controls. Determination of compound potencies was obtained by fitting the dose-response data to a four-parameter logistical equation.

[3] = system: SIRPα signalling induced by Raji cells; test: Assay B: SIRPα signalling assay using Raji cells; assay type: cell-based, human; conditions: Homo sapiens, compounds of the invention, Table 4, read-out: Inhibition of SIRα signalling induced by Raji cells: IC50
Method: Bioassay reagent 1 of the PathHunter Bioassay detection kit (DiscoverX 93-0001) was added to each well of the plate using a multichannel pipette followed by a 15 min incubation at room temperature. Afterwards bioassay reagent 2 was added followed by 60 min incubation at room temperature (incubation in the dark).
The analysis of the data was performed using the luminescence signal generated by beta-galactosidase in the PathHunter reporter cell line. The luminescence measurement was done using a Pherastar Multi-Mode Reader.

QPCTL = QPCTL (Homo sapiens (Human), UniProt Q9NXS2); test: Assay A: biochemical QPCTL activity assay (MALDI-TOF MS); conditions: compounds of the invention, Table 2; read-out: Inhibition of QPCTL: IC50
Method: as §1

Chain of QPCT (Q16769 29-361): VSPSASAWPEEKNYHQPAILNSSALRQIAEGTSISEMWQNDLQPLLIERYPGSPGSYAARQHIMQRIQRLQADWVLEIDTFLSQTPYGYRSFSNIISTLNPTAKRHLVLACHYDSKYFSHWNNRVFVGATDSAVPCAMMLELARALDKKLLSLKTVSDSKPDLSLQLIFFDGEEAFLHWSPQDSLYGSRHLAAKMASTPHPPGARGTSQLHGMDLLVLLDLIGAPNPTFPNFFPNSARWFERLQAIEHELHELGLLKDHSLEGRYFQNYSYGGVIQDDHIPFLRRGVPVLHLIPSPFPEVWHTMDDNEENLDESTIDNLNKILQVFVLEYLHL
Chain of QPCTL (Q9NXS2 whole entry): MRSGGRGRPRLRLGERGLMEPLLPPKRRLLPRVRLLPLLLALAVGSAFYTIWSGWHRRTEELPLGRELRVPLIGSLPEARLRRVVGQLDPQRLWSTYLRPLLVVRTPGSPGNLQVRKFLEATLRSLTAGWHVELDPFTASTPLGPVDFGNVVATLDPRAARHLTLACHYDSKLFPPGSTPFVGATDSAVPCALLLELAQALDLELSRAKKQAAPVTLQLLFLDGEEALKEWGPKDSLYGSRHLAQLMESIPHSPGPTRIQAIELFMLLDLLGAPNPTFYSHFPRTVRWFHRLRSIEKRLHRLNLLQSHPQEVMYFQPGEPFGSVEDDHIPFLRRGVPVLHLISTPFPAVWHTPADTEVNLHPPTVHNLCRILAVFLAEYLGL

| SMILES | IC50 [1] | Papp A→B [2] | efflux ratio [2] | IC50 (QPCT) | IC50 [3] | IC50 (QPCTL) |
| --- | --- | --- | --- | --- | --- | --- |
| Cn1cnnc1C1(F)CCN(c2c(C#N)cccc2-c2cnc3nn(C(C)(C)C)c(Cl)c3c2)CC1 [compound 86] | 23 nM | 18 ×10⁻⁶ cm/s | 1.6 | 1 nM | 13 nM | 1 nM |
| Cn1cnnc1C1CCN(c2c(C#N)cccc2-c2cnn3ncccc23)CC1 [compound 57] | 244 nM | 3.9 ×10⁻⁶ cm/s | 11 | 11 nM | 442 nM | 5 nM |
| COc1cc(-c2cccc(C#N)c2N2CCC(F)(c3nncn3C)CC2)cnc1F [compound 53] | 22 nM | 35 ×10⁻⁶ cm/s | 1.3 | 3 nM | 81 nM | 1 nM |
| Cn1cnnc1C1CCN(c2c(C#N)cccc2-c2cnc3c(c2)NCCO3)CC1 [compound 24] | 177 nM | 1 ×10⁻⁶ cm/s | 34 | 56 nM | 368 nM | 14 nM |
| COc1cncc(-c2cccc(C#N)c2N2CCC(c3nncn3C)CC2)c1 [compound 16] | 332 nM | 4.5 ×10⁻⁶ cm/s | 12.2 | 86 nM | 625 nM | 22 nM |
| Cn1cnnc1C1CCN(c2c(C#N)cccc2-c2cncc3cn(Cc4ccccc4)nc23)CC1 [compound 77] | 1860 nM | 0.7 ×10⁻⁶ cm/s | 52.3 | 88 nM | 374 nM | 30 nM |
| Cn1cnnc1C1(F)CCN(c2c(C#N)cccc2-c2cncc3cn(Cc4ccccc4)nc23)CC1 [compound 78] | 440 nM | 6.5 ×10⁻⁶ cm/s | 7.4 | 42 nM | 456 nM | 34 nM |
| Cc1ccncc1-c1cccc(C#N)c1N1CCC(c2nncn2C)CC1 [compound 8] | 348 nM | 3.9 ×10⁻⁶ cm/s | 9.5 | 31 nM | 257 nM | 6 nM |
| Cn1ccnc1-c1cncc(-c2cccc(C#N)c2N2CCC(c3nncn3C)CC2)c1 [compound 30] | 124 nM | < 0.3 ×10⁻⁶ cm/s | > 32 | 3 nM | 135 nM | 1 nM |
| Cc1c(-c2cccc(C#N)c2N2CCC(c3nncn3C)CC2)cncc1-n1cccn1 [compound 46] | 71 nM | 6.8 ×10⁻⁶ cm/s | 2.5 | 13 nM | 97 nM | 2 nM |
| Cn1cnnc1C1(F)CCN(c2c(C#N)cccc2-c2cnc3nc(C(C)(C)C)nn3c2)CC1 [compound 72] | 20 nM | 3.9 ×10⁻⁶ cm/s | 14.4 | 1 nM | 28 nM | 1 nM |
| Cn1cnnc1C1(F)CCN(c2c(C#N)cccc2-c2cnc3nn(C(F)(F)F)cc3c2)CC1 [compound 75] | 7 nM | 12 ×10⁻⁶ cm/s | 4 | 1 nM | 7 nM | 1 nM |
| Cn1cnnc1C1(F)CCN(c2c(C#N)cccc2-c2cnc(F)cc2Cl)CC1 [compound 85] | 80 nM | – | 1.8 | 4 nM | 70 nM | 3 nM |
| Cn1cnnc1C1CCN(c2c(C#N)cccc2-c2cccnc2)CC1 [compound 67] | 58 nM | 5.3 ×10⁻⁶ cm/s | 7.4 | 24 nM | 229 nM | 6 nM |
| Cn1cnnc1C1CCN(c2c(C#N)cccc2-c2cnc3nc(-c4cccc(Cl)c4)ccn23)CC1 [compound 28] | 282 nM | 5.5 ×10⁻⁶ cm/s | 12.4 | 12 nM | 250 nM | 2 nM |
| Cc1cc(C)n(-c2cncc(-c3cccc(C#N)c3N3CCC(c4nncn4C)CC3)c2)n1 [compound 51] | 52 nM | 3.4 ×10⁻⁶ cm/s | 12.9 | 8 nM | 148 nM | 2 nM |

Results, then the compound that gave them:

| IC50 [1] | Papp A→B [2] | efflux ratio [2] | IC50 (QPCT) | IC50 [3] | IC50 (QPCTL) | SMILES |
| --- | --- | --- | --- | --- | --- | --- |
| 72 nM | 36 ×10⁻⁶ cm/s | 2 | 24 nM | 105 nM | 4 nM | Cn1cnnc1C1CCN(c2c(C#N)cccc2-c2cnc(F)c(Cl)c2)CC1 [compound 42] |
| 13 nM | 16 ×10⁻⁶ cm/s | 4.1 | 12 nM | 88 nM | 2 nM | Cc1cc(F)ncc1-c1cccc(C#N)c1N1CCC(c2nncn2C)CC1 [compound 4] |
| 56 nM | 18 ×10⁻⁶ cm/s | 3.6 | 9 nM | 63 nM | 2 nM | COc1cc(-c2cccc(C#N)c2N2CCC(c3nncn3C)CC2)cnc1F [compound 49] |
| 109 nM | 0.1 ×10⁻⁶ cm/s | 100 | 4 nM | 214 nM | 1 nM | Cn1cnnc1C1CCN(c2c(C#N)cccc2-c2cnc3nnn(C)c3c2)CC1 [compound 40] |
| 114 nM | 0.2 ×10⁻⁶ cm/s | 50.6 | 3 nM | 87 nM | 1 nM | Cn1cc2cc(-c3cccc(C#N)c3N3CCC(c4nncn4C)CC3)cnc2n1 [compound 22] |
| 26 nM | 23 ×10⁻⁶ cm/s | 1.6 | 12 nM | 93 nM | 3 nM | Cc1cc(-c2cccc(C#N)c2N2CCC(c3nncn3C)CC2)cnc1F [compound 5] |
| 674 nM | 1.1 ×10⁻⁶ cm/s | 21.8 | 22 nM | 446 nM | 7 nM | COc1cc(-c2cccc(C#N)c2N2CCC(c3nncn3C)CC2)cnn1 [compound 48] |
| 210 nM | < 0.1 ×10⁻⁶ cm/s | > 27 | 6 nM | 501 nM | 1 nM | Cn1cnnc1C1CCN(c2c(C#N)cccc2-c2cnc3nc[nH]c3c2)CC1 [compound 33] |
| 67 nM | 1.5 ×10⁻⁶ cm/s | 19.3 | 12 nM | 170 nM | 2 nM | Cn1cnnc1C1CCN(c2c(C#N)cccc2-c2cnc3nonc3c2)CC1 [compound 7] |
| 436 nM | 8.6 ×10⁻⁶ cm/s | 7.7 | 128 nM | 372 nM | 21 nM | Cc1cncc(-c2cccc(C#N)c2N2CCC(c3nncn3C)CC2)c1 [compound 11] |
| 294 nM | 13.6 ×10⁻⁶ cm/s | 5 | 357 nM | 2270 nM | 56 nM | Cn1cnnc1C1CCN(c2c(C#N)cccc2-c2ccc(Cl)nc2)CC1 [compound 18] |
| 271 nM | 2.2 ×10⁻⁶ cm/s | 22.3 | 28 nM | 342 nM | 3 nM | Cn1cnnc1C1CCN(c2c(C#N)cccc2-c2cnc3nsnc3c2)CC1 [compound 43] |
| 135 nM | 39 ×10⁻⁶ cm/s | 2.2 | 71 nM | 244 nM | 9 nM | Cn1cnnc1C1CCN(c2c(C#N)cccc2-c2cnc(F)c(OC(F)(F)F)c2)CC1 [compound 31] |
